Laboratory results from patent US20240058240A1, “COMPOUNDS AS SELF-TANNING SUBSTANCES AND TANNING COMPOSITIONS THEREOF” (CHEMCOM S.A., priority 2020, published 2024).

How the values were obtained:
Format in all cases: cell-based
[1] = tested on: Normal Human Epidermal Melanocytes moderately pigmented (NHEMs-MP); experiment: MTS cytotoxicity test on NHEMs-MP; details: 4 days of treatment, 5 concentrations, threshold 80% viability
Procedure: (§1) This primary culture was cultivated in medium M254 supplemented (LIFE TECHNOLOGIES; ref:M-254-500) with HMGS (human melanocyte growth supplement; LIFE TECHNOLOGIES; ref: S-002-5) and gentamycin (LIFE TECHNOLOGIES; ref:15710-049) and maintained in a humidified incubator at 37° C. with a 5% CO2 atmosphere. For experiments (see below), cells were seeded at a density of 9×10^4 cells/well (100 μL/well) and cultured at 37° C. under a 5% CO2.
NHEMs moderately pigmented (NHEMs-MP) were seeded in 24-wells plates at a density of 9×10^4 cells/well, 72 h before the treatment with the different concentrations of 2 different compounds according to embodiments of the invention. After 2 days of treatment with these compounds, compounds were re-applied for 2 additional days according to the experimental scheme as shown in FIG. 1. Sodium dodecyl sulfate (SDS) at 0.05% was used as cytotoxicity positive control in order to validate the experiment. […]
An MTS assay (3-(4,5-dimethythiazol-2-yl)-5-(3-carboxymethoxyphenyl)-2-(4-sulfophenyl)-2H-tetrazolium) was performed to measure the maximal concentrations the compounds which can be used in the culture medium of NHEMs-MP without affecting cell viability. […] Cell viability was analyzed, and toxicity/viability was expressed in percentage relative to the ethanol treated condition which was fixed at 100%. […]

OR7C1 = molecular target: T1, OR7C1 (Homo sapiens, UniProt O76099); experiment: Luciferase-based CRE gene reporter assay, dose-response on OR7C1; details: negative logarithm of the EC50 in Moles; semi-logarithmic dilutions from 1 mM to 316 nM on OR7C1; read-out: -LogEC50 (average n > 3) (converted)
T1 construct: transfected with a plasmid containing the CRE-luciferase and a plasmid containing the olfactory receptor; expressed in transfected cells; host or cells: HEK293T-RTP1A1/RTP2 (HEK293T stably expressing the chaperones RTP1A1 and RTP2)
T1 sequence (O76099 1-320): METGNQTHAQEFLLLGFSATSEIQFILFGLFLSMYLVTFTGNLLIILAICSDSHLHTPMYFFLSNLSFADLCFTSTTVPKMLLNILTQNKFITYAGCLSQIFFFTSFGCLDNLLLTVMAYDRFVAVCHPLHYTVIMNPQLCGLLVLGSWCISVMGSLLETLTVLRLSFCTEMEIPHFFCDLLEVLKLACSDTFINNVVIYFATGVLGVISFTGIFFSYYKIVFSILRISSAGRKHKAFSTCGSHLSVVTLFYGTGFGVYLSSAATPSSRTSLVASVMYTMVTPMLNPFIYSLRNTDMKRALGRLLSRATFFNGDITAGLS
Procedure: HEK293T-RTP1A1/RTP2 cells were maintained in minimal essential medium (EMEM, Lonza) containing 10% fetal bovine serum (M10). These cells were generated by transfecting HEK293T (Thermofisher Scientific, cat ref: R70007) with an expression vector containing the sequences of the chaperone proteins RTP1A1 and RTP2 and a resistance gene to puromycin, using Lipofectamine 2000. The recombinant cell population, used in these experiments, was selected by adding 10 μg/ml of puromycin into the culture medium and subsequently subcloned (WO 2014/191047 A1).
Potential OR7C1 agonists were diluted at a concentration of 1 mole/liter (M) into an organic solvent such as Dimethyl Sulfoxide (DMSO) or Ethanol to generate stock solutions. […]
For concentration-response analysis, serial dilutions of the tested molecules were prepared from stock solutions in EMEM plated into 96-well plates.
For the dose-response analysis, a Luciferase-based gene reporter assay (Promega, Leiden, the Netherlands) was used. Briefly, cells were platted on poly-D-lysine-coated 96-well plates and transfected with a plasmid containing the CRE-luciferase and a plasmid containing the olfactory receptor. Sixteen hours after transfection, the culture medium was replaced by serum-free EMEM containing the tested compounds at a determined concentration. After four hours of incubation at 37° C., cells were lysed and processed for luminescence measurement. Luminescence emission was recorded. Results were expressed as luciferase activity ([…] (RLU)) or as percentage of the response induced by 10 μM of the adenylate cyclase activator Forskolin. An empty plasmid is used as negative control.
Dose-response analyses using the luciferase-based reporter assay were performed using semi-logarithmic serial dilutions of the compounds, from 1 mM to 316 nM, on OR7C1. 46 compounds were tested in concentration-response analyses. In each experiment, an empty vector (pEFIBRHO) was used as negative control. Values are given as the negative logarithm of the EC50 in Moles.

[2] = tested on: Normal Human Epidermal Melanocytes moderately pigmented (NHEMs-MP); experiment: Melanin content (pigmentation) of NHEMs-MP in culture
Procedure: as §1
The NHEMs-MP were treated for 4 days, with a medium refresh after 2 days of treatment—Amberketal, Ambermax and with the reference molecule (L-DOPA)—when the culture media are collected and stored at −80° C. as shown in FIG. 2. At the end of the treatments, the culture media were collected a second time, pooled with the media collected at day 2 and centrifuged for 30 minutes (14000 rpm). The pellet obtained after centrifugation and NHEMs-MP treated cells were lysed in 150 μl of a NaOH 1M solution. 5 μl of each cell lysate were used for protein quantification using BCA protein assay. The remaining 145 μl of the lysates were heated at 80° C. during 1 h. The optical density was measured at 490 nm and the melanin content was determined by comparison with a standard curve of synthetic melanin and reported to the quantity of protein present in each cell well tested.
The effects of these 2 compounds, namely Ambermax and Amberketal, on the melanin production were evaluated as described above. Based on MTS results, moderately pigmented (MP) NHEMs were treated with these 2 compounds at one concentration (100 μM for Amberketal and 3.16 μM for Ambermax) for 4 days. In parallel, cell cultures were also treated with Ethanol 0.1%, a concentration corresponding to the test compounds solvent, and with a known modulator of pigmentation (L-DOPA 50 μM). […] At the end of the treatments (D4), cells were lysed, the melanin content was quantified by spectrophotometry and normalized to the amount of proteins. Extracellular melanin was also evaluated by the same methodology after centrifugation of the culture media.

EC50 (OR7C1) [µM]	Compound	cell toxicity (MTS, viability relative to ethanol treated condition) [1]	increase of melanin present in the media (extracellular) ([2]; 100 μM, 4 days, NHEMs-MP, in comparison with DOPA (50 μM), p<0.01, n=10)	increase of intracellular melanin content ([2]; 100 μM, 4 days, NHEMs-MP, in comparison with DOPA (50 μM), p<0.01, n=12)	melanin content in NHEMs ([2]; 50 μM, 4 days of treatment)
25.1	CC(=O)C1(C)CCC2=C(C1C)C(C)(C)CCC2 (stereo not drawn) [Compound 4, Georgywood]	no significant cell toxicity	–	–	–
2.51	CC12CCC3C(CCC4C(C)(C)CCCC43C)(CO1)O2 (stereo not drawn) [Compound 17, Amberketal]	–	+99%	+40%	–
–	N[C@@H](Cc1ccc(O)c(O)c1)C(=O)O [L-DOPA, 3,4-dihydroxyphenylalanine, reference compound]	–	–	–	enhanced slightly the melanin content
